Measurements as given in patent US5843916A, “Cyclic amp analogues, individually and in pairs, to inhibit neoplastic cell growth” (priority 1994, dated 1998).
Where two headings read alike, the source gives them in different places. Values belong to the molecule of their own block, whether it stands above or below them.

What was measured:
[1] = system: breast (MCF-7) and colon (LS-174T) cancer cell lines; test: Growth inhibition of breast and colon cancer cells (Table 1); type: cell-based, human; settings: for inhibition at 50 µM: Homo sapiens
Protocol: The compounds of the present invention were added using 100X concentrated stock solutions. At desired times, cell counts in duplicate were performed on a Coulter counter after harvesting the cells with gentle trypsinization. […] Cell counts were performed on each of three or more separate experiments, and the average values are expressed as percent growth inhibition as compared with untreated control cells. | ^a The values of percentage growth inhibition were determined from th | doseresponse curve experiments. Each value represents an average value an | range (in parentheses) obtained from three or more separate experiments. | The cell counts in duplicate were performed at day 3 and day 4 after two | treatments (day 0 and day 2) with analogs (seeding on day -1).

HL-60 = test: Growth inhibition of leukemic cells (Table 12); type: cell-based; settings: Homo sapiens
Molt-4 = test: Growth inhibition of leukemic cells (Table 12); type: cell-based, human; settings: Homo sapiens, MOLT-4; read-out: Inhibition of Growth IC50, Molt-4
K-562 = test: Growth inhibition of leukemic cells (Table 12); type: cell-based; settings: Homo sapiens, K562
myc-K562 = test: Growth inhibition of leukemic cells (Table 12); type: cell-based; settings: Homo sapiens
[2] = system: HL-60 human leukemia cells; test: Growth inhibition of HL-60 leukemia cells (Example 3, Table 16); type: cell-based
Protocol: HL-60 leukemic cells were obtained from the American Type Culture Collection (Rockville, Md.) and were grown in suspension culture in RPMI 1640 supplemented with 10% heat-inactivated fetal bovine serum, streptomycin (500 μg/ml), penicillin (50 units/ml), and glutamine (1 mM) (Gibco, Grand Island, N.Y.).
Cell counts were performed at desired times on a Coulter Counter.
The IC50 values were determined from the dose-
represent an average value obtained for each analogue
from two or more separate experiments carried out from 3
days or 6 days. Initial cell number, 1 × 10^5 /dish.
Typical numbers of untreated control cells at day 3 and
viability in treated and control cells.

[3] = system: four leukemic cell lines (HL-60, K-562, myc-K562, Molt-4); test: Growth inhibition of leukemic cell lines; type: cell-based, human
[4] = target: T1, RI, regulatory subunit of cAMP-dependent protein kinase type I (Oryctolagus cuniculus, UniProt G1TDN4); settings: literature, cited from earlier work; for relative affinity Ki (cAMP)/Ki (analogue), RI Site A: Site A (Site 2); for relative affinity Ki (cAMP)/Ki (analogue), RI Site B: Site B (Site 1)
T1 construct: from tissue

[5] = target: T2, RII, regulatory subunit of cAMP-dependent protein kinase type II (Bos taurus, UniProt P00515); settings: literature, cited from earlier work; for relative affinity Ki (cAMP)/Ki (analogue), RII Site A: Site A (Site 2); for relative affinity Ki (cAMP)/Ki (analogue), RII Site B: Site B (Site 1)
T2 construct: from tissue

[6] = system: LS-174T human colon carcinoma cells; test: Growth inhibition of LS-174T cells (Example 4, Table 18); type: cell-based; settings: for inhibition at 10 µM / inhibition at 50 µM: Homo sapiens, LS174T; for growth inhibitory potency: LS-174T
Protocol: LS-174T human colon carcinoma cells were obtained from the National Cancer Institute, Division of Cancer Treatment, Bethesda, Md., and were grown in Eagle's minimum essential medium supplemented with 10% heat-inactivated fetal bovine serum, Eagle's minimum essential medium nonessential amino acids, 20 mM 4-(2-hydroxyethyl)-1-piperazineethanesulfonic acid, 2mM glutamine, and penicillin-streptomycin (Gibco). The medium was changed every 48 hours.
LS-174T cells were seeded at a density of 2×10^5 / 60 mm dish. […] At desired times, cell counts were performed in duplicate on a Coulter Counter after harvesting cells with gentle trypsinization.
The percentage growth inhibition values shown at 10
and 50 μM analogue concentrations were determined from
the dose-response curve experiments like those shown in
FIG. 1 and represent an average value obtained for each
analogue from two or more separate experiments. Sp-6-SET-

[7] = system: LS-174T human colon carcinoma cells; test: Additive growth inhibition with 8-Cl-cAMP (Table 19); type: cell-based
Protocol: The medium was changed every 48 hours.
At desired times, cell counts were performed in duplicate on a Coulter Counter after harvesting cells with gentle trypsinization.
The analogues were added at 24

[8] = target: T1, RI, regulatory subunit of cAMP-dependent protein kinase type I; test: Binding affinity for RI (Table 14); settings: vs cyclophosphate
Protocol: (§1) RI and RII are the regulatory subunits of cAMP-dependent protein
(§2) kinase type I and type II, respectively. Site A (Site 2) and Site B
(§3) (RI and RII): the affinities of analogues for Site A and Site B were
(§4) determined by the measurement of kinetic constants (inhibition constant,
(§5) Ki), and the values are expressed as the relative affinity Ki
(§6) (analogue), i.e., the ratio between the apparent inhibition constant for
(§7) cAMP and the analogue, as described in Ogreid et al., Eur. J. Biochem.

[9] = target: T2, RII, regulatory subunit of cAMP-dependent protein kinase type II; test: Binding affinity for RII (Table 14); settings: vs cyclophosphate
Protocol: as §1, §2, §3, §4, §5, §6, §7

[10] = system: breast and colon cancer lines (MCF-7, T-47D, ZR-75-1, MCF-7ras, MDA-MB-231, BT-20, HBL-100, LS-174T, WiDr, HT-29); test: Growth inhibition of breast and colon cancer lines (FIG. 1); type: cell-based, human; settings: 0.1 mM, alone
[11] = 72 h, 50 μM, day 3, average (range), read-out: % Growth Inhibition, Day 3
[12] = 96 h, 50 μM, day 4, average (range), read-out: % Growth Inhibition, Day 4
[13] = 50 micromolar, read-out: growth inhibition
[14] = Homo sapiens, HL-60, read-out: growth inhibition

T1 sequence (G1TDN4 1-381): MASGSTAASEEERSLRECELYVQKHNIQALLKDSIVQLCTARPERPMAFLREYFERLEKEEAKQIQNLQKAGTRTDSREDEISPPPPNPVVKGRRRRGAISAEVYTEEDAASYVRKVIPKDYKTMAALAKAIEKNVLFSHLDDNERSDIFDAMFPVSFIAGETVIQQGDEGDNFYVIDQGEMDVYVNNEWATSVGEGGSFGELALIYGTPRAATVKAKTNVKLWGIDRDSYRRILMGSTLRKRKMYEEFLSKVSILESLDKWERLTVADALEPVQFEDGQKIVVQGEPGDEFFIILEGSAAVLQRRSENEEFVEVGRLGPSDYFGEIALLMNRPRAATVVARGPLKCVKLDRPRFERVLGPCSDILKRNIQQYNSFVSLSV
T2 sequence (P00515 whole entry): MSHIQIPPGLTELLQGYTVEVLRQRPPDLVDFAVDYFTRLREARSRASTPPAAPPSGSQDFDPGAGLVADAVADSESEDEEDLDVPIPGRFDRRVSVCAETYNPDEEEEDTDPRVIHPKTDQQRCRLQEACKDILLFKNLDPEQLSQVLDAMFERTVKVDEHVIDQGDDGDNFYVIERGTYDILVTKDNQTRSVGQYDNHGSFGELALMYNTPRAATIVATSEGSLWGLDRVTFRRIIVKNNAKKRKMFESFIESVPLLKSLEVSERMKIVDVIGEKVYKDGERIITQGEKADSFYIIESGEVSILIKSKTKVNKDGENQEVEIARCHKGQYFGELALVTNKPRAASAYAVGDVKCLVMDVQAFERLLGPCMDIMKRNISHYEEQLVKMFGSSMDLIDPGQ

SMILES: O=P1(O)OC[C@H]2O[C@@H](n3c(Sc4ccc(Cl)cc4)nc4c(N5CCCCC5)ncnc43)[C@H](O)[C@@H]2O1 [6-piperidino-8-p-chlorophenylthio-cAMP]
inhibition at 50 µM [1, 11]: 33% | inhibition at 50 µM [1, 12]: 25%

IC50 (HL-60): 50 µM | IC50 (Molt-4): 100 µM | IC50 (K-562): 100 µM | IC50 (myc-K562): 100 µM | IC50 ([2]; Homo sapiens, HL-60, 72 h; read-out: Growth inhibition (IC50), Day 3): 100 µM | IC50 ([2]; Homo sapiens, HL-60, 144 h; read-out: Growth inhibition (IC50), Day 6): 18 µM
SMILES: Nc1ncnc2c1nc(Br)n2[C@@H]1O[C@@H]2COP(=O)(O)O[C@H]2[C@H]1O [8-Br-cAMP, 8-bromo-adenosine 3': 5'-monophosphate]
inhibition at 50 µM [1, 11]: 41% | inhibition at 50 µM [1, 12]: 40% | inhibition at 50 µM [1, 13]: 40 to 75% | inhibition at 20 µM ([2]; Homo sapiens, HL-60; 20 μM; read-out: growth inhibition): < 5% | times less potent than 8-Cl-cAMP ([3]; leukemic cell lines): 5-20 times | relative affinity Ki (cAMP)/Ki (analogue), RI Site A [4]: 1.30 | relative affinity Ki (cAMP)/Ki (analogue), RI Site B [4]: 1.0 | relative affinity Ki (cAMP)/Ki (analogue), RII Site A [5]: 0.11 | relative affinity Ki (cAMP)/Ki (analogue), RII Site B [5]: 6.8

SMILES: CN(C)c1nc2c(N)ncnc2n1[C@@H]1O[C@@H]2COP(=O)(O)O[C@H]2[C@H]1O [8-N,N-dimethylamino-cAMP]
inhibition at 50 µM [1, 11]: 0% | inhibition at 50 µM [1, 12]: 0% | inhibition at 50 µM [1, 13]: ≤ 20%

SMILES: Nc1ncnc2c1nc(I)n2[C@@H]1O[C@@H]2COP(=O)(O)O[C@H]2[C@H]1O [8-iodo-cAMP]
inhibition at 50 µM [1, 11]: 26% | inhibition at 50 µM [1, 12]: 25%

SMILES: Nc1ncnc2c1nc(Sc1ccc(Cl)cc1)n2[C@@H]1O[C@@H]2COP(=O)(O)O[C@H]2[C@H]1O [8-p-chlorophenylthio-cAMP]
inhibition at 50 µM [1, 11]: 23% | inhibition at 50 µM [1, 12]: 24%

SMILES: Nc1ncnc2c1nc(NCCO)n2[C@@H]1O[C@@H]2COP(=O)(O)O[C@H]2[C@H]1O [8-β-hydroxyethylamino-cAMP]
inhibition at 50 µM [1, 11]: 15% | inhibition at 50 µM [1, 12]: 20% | inhibition at 50 µM [1, 13]: ≤ 20%

SMILES: CCOC(=O)Nc1ncnc2c1ncn2[C@@H]1O[C@@H]2COP(=O)(O)O[C@H]2[C@H]1O [N^6 -ethoxycarbonyl-cAMP]
inhibition at 50 µM [1, 11]: 32% | inhibition at 50 µM [1, 12]: 40% | inhibition at 50 µM [1, 13]: 30 to 70%

SMILES: O=C(Nc1ccccc1)Nc1ncnc2c1ncn2[C@@H]1O[C@@H]2COP(=O)(O)O[C@H]2[C@H]1O [N^6 -phenylcarbamoyl-cAMP]
inhibition at 50 µM [1, 11]: 10% | inhibition at 50 µM [1, 12]: 10%

SMILES: CCN(CC)c1ncnc2c1nc(Sc1ccc(Cl)cc1)n2[C@@H]1O[C@@H]2COP(=O)(O)O[C@H]2[C@H]1O [N^6,N ^6-diethyl-8-p-chlorophenylthio-cAMP]
inhibition at 50 µM [1, 11]: 43% | inhibition at 50 µM [1, 12]: 45%

SMILES: O=P1(O)OC[C@H]2O[C@@H](n3c(SCc4ccccc4)nc4c(NCc5ccccc5)ncnc43)[C@H](O)[C@@H]2O1 [N^6-benzyl-8-benzylthio-cAMP]
inhibition at 50 µM [1, 11]: 25% | inhibition at 50 µM [1, 12]: 23%

SMILES: CCCCNc1ncnc2c1nc(Sc1ccc(Cl)cc1)n2[C@@H]1O[C@@H]2COP(=O)(O)O[C@H]2[C@H]1O [N^6-n-butyl-8-p-chlorophenylthio-cAMP]
inhibition at 50 µM [1, 11]: 15% | inhibition at 50 µM [1, 12]: 22%

SMILES: O=P1(O)OC[C@H]2O[C@@H](n3c(Sc4ccc(Cl)cc4)nc4c(Nc5ccccc5)ncnc43)[C@H](O)[C@@H]2O1 [N^6-phenyl-8-p-chlorophenylthio-cAMP]
growth inhibition ([1]; 50 micromolar): most potent growth inhibition among the C-6,-8 disubstituted analogues | inhibition at 50 µM [1, 11]: 60% | inhibition at 50 µM [1, 12]: 47%

SMILES: Nc1ncnc2c1ncn2[C@@H]1O[C@@H]2CO[P@@](O)(=S)O[C@H]2[C@H]1O [Rp-cAMPS]
inhibition at 20 µM [2, 14]: < 5% | inhibition at 10 µM [6]: 15% | inhibition at 50 µM [6]: 35% | growth inhibitory potency [6]: moderate potency | inhibition at 50 µM ([7]; Homo sapiens, LS174T, 96 h, 50 μM, 4 days): 35% | effect on growth-inhibitory effect of 8-Cl-cAMP ([7]; with 8-Cl-cAMP): additive effect

SMILES: Nc1nc(Cl)nc2c1ncn2[C@@H]1O[C@@H]2CO[P@](O)(=S)O[C@H]2[C@H]1O [Sp-2-Cl-cAMPS, Sp-2-Chloroadenosine-3':5'-monophosphorothioate]
inhibition at 10 µM [6]: 10% | inhibition at 50 µM [6]: 25% | growth inhibitory potency [6]: least potency

SMILES: CCSc1ncnc2c1ncn2[C@@H]1O[C@@H]2CO[P@](O)(=S)O[C@H]2[C@H]1O [Sp-6-SET-cPMPS, Sp-6-ethylthiopurine-3':5'-monophosphorothioate]
inhibition at 10 µM [6]: 25% | inhibition at 50 µM [6]: 50% | growth inhibitory potency [6]: moderate potency

SMILES: Nc1ncnc2c1nc(Br)n2[C@@H]1O[C@@H]2CO[P@](O)(=S)O[C@H]2[C@H]1O [Sp-8-Br-cAMPS]
decrease in affinity for Site A of RI vs corresponding cyclophosphate [8]: 7 fold | decrease in affinity for Site B of RI vs corresponding cyclophosphate [8]: 19 fold | decrease in affinity for Site A of RII vs corresponding cyclophosphate [9]: 37 fold | decrease in affinity for Site B of RII vs corresponding cyclophosphate [9]: 3.1 fold | IC50 ([2]; Homo sapiens, HL-60, 72 h, read-out: Growth inhibition (IC50), Day 3): 28 µM | IC50 ([2]; Homo sapiens, HL-60, 144 h, read-out: Growth inhibition (IC50), Day 6): 3 µM | inhibition at 20 µM [2, 14]: 47% | fold more potent than 8-Br-cAMP ([2]; IC50, day 6): 6 fold | inhibition at 10 µM [6]: 40% | inhibition at 50 µM [6]: 60% | growth inhibitory potency [6]: greatest inhibition of cell growth | relative affinity Ki (cAMP)/Ki (analogue), RI Site A [4]: 0.19 | relative affinity Ki (cAMP)/Ki (analogue), RI Site B [4]: 0.054 | relative affinity Ki (cAMP)/Ki (analogue), RII Site A [5]: 0.003 | relative affinity Ki (cAMP)/Ki (analogue), RII Site B [5]: 2.2

SMILES: Nc1ncnc2c1ncn2[C@@H]1O[C@@H]2CO[P@](O)(=S)O[C@H]2[C@H]1O [Sp-cAMPS]
inhibition at 20 µM [2, 14]: < 5% | inhibition at 10 µM [6]: 7% | inhibition at 50 µM [6]: 15% | growth inhibitory potency [6]: least potency

SMILES: Cn1c(=O)c2[nH]cnc2n(C)c1=O [theophylline, reference compound]
growth inhibitory effect [10]: little or no growth inhibitory effect | growth inhibitory effect ([3]; 0.1 mM, alone): little or no growth inhibitory effect
